How the values were obtained:
KCC2 promoter = test: KCC2-LUC luciferase primary screen in primary cortical neurons; format: cell-based, mouse; settings: Natural Compounds; rank score; 100 nM, 48 h
Protocol: Cytosine arabinoside ([…]) was added to cultures on the second day after seeding [2 d in vitro (DIV)] to inhibit the proliferation of non-neuronal cells. Cell suspension was plated at a density of 1×10^6 cells/ml onto 24-well tissue-culture dishes coated with poly-d-lysine.
LUC activity was then determined for each compound. Culture supernatant was removed and cells were lysed with 150 μl lysis buffer (Targeting Systems CA, USA cat. CLR1). LUC activity was measured with a RedLuciferase Assay kit (Targeting Systems cat. FLAR) according to the manufacturer's instructions. A Veritas microplate luminometer was used to measure luminescence; for each treatment triplicates of 40 μl cell lysates (from each 24-well tissue-culture dish) were used and 25 μl substrate was injected per well. […] Relative Light units (RLU) for each treatment was derived from Light Units (compound treatment)/vehicle treatment (0.5% DMSO).
The primary screen encompassed three levels of LUC measurements. […] Each compound was ranked based on composite scores from primary and secondary screening.

KCC2 mRNA [1] = test: Secondary screen: KCC2 RT-qPCR in primary mouse neurons; format: cell-based; settings: Natural Compounds; rank score
Protocol: The primary screen encompassed three levels of LUC measurements. The first level of screening yielded a total of 137 compounds with cut-off RLU>125% LUC activity. These 137 compounds were subject to second round of screening, which was carried out in duplicate independent assays to yield the top 103 compounds sorted for highest RLU. The 103 compounds were then subjected to a third round of screening carried out in duplicate independent assays to yield the top 40 compounds which were again ranked. The best 22 of these 40 compounds (ranked for highest RLU activity) were subjected to secondary screening: Cultured neurons were treated with the 22 compounds; RT-qPCR and Clomeleon imaging methodologies (Yeo et al., 2009, J Neurosci 29:14652-14662) were used to determine effects of compounds on KCC2 mRNA expression and [Cl—]i, respectively. Each compound was ranked based on composite scores from primary and secondary screening.
(§1) Total RNA was isolated from cultured cell samples using Directzol RNA miniprep kit (ZymoResearch). The protocol includes DNAse digestion to exclude genomic DNA from preparations. Total RNA (1 μg) was reverse transcribed using oligo primers (dT) and SuperScriptIII first-strand synthesis kit (Invitrogen). Gene expression was assessed by quantitative real-time PCR using 2×SYBR Green Master Mix (Qiagen) and a three-step cycling protocol (anneal at 60° C./elongate at 72° C., denature at 95° C.). Specificity of primers was verified by dissociation/melting curve for the amplicons when using SYBR Green as a detector. All reactions were performed in triplicates. The amount of target messenger RNA (mRNA) in the experimental group relative to that in the control was determined from the resulting fluorescence and threshold values (Ct) using the ΔΔCt method. βIII-tubulin was used as housekeeping gene.
oligodT-initiated reverse transcription of 1 μg total RNA, DNA-se treated, was subjected to RT-qPCR using primers specific for KCC2 for rat and KCC2 for human sequences, normalized for neuronal βIII-tubulin, as previously described (Yeo et al., 2009, J Neurosci 29:14652-14662). For cultured neurons, total RNA was extracted from pelleted cells, and for spinal cord tissue it was extracted from microdissected lumbar spinal cord dorsal horn.
To identify KCC2 gene expression enhancing compounds, cultured primary cortical neurons were cultured from KCC2-luciferase(LUC)-knockin (KCC2-LUCki) mice (Liedtke et al., 2013, Small 9:1066-1075; Yeo et al., 2013, Proc Natl Acad Sci USA 110:4315-4320) and used LUC metrics as readout for activity of the proximal KCC2 promoter (2.5 kB (Yeo et al., 2009, J Neurosci 29:14652-14662)), which drives LUC in this mouse transgenic line. A Z′ factor of 0.94 was obtained. This strategy will not select for long-range enhancers of KCC2 gene expression that act outside the 2.5 kB core KCC2 promoter. 1057 compounds, contained in two NCI libraries (FIG. 1), related to inhibition of growth of malignantly transformed cells were screened. Iterative screening followed by measurements of KCC2 mRNA (RT-qPCR) and intracellular chloride ([Cl—]i), using clomeleon chloride indicator protein (Kuner and Augustine, 2000, Neuron 27:447-459; Yeo et al., 2009, J Neurosci 29:14652-14662), led to decreasing numbers of confirmed and re-confirmed hits, and 4 “winner” compounds were selected (FIG. 1 and Table 3).

KCC2 mRNA [2] = test: KCC2 mRNA RT-qPCR in rat primary cortical neurons; format: cell-based; settings: primary rat cortical neurons; 0.1, 0.2, 0.5 μM KP
Protocol: as §1, with “gene. oligodT-initiated reverse transcription of 1 μg total RNA, DNA-se treated, was subjected to RT-qPCR using primers specific for KCC2 for rat and KCC2 for human sequences, normalized for neuronal βIII-tubulin, as previously described (Yeo et al., 2009, J Neurosci 29:14652-14662). For cultured neurons, total RNA was extracted from pelleted cells, and for spinal cord tissue it was extracted from microdissected lumbar spinal cord dorsal horn.” for “gene.”

[3] = test system: motor function and coordination of mice; test: Rotarod assay; format: in vivo, mouse; settings: 10, 30 mg/kg i.p.; one-time exception high-dose day 7
Protocol: For assessment in rotarod (RR), all animals received training prior to experiments; mice were placed on the RR apparatus set in an accelerating rotational speed mode (3-30 rpm, 300 s max) per trial. Following training, the average time to fall from the rotating cylinder over three trials was recorded as baseline latency (4-40 rpm, 300 s max/trial). Mice were injected daily with either vehicle or drug compounds before RR tests. Latency to fall was measured (4-40 rpm, 300 s max/trial (inter-trial interval is at least 15 min). The average latency to fall from the rod was recorded for each animal.
With these beneficial effects of KP on pathologic pain and itch, whether KP had undesirable effects on the CNS in terms of sedation, impairment of motor stamina, balance and coordination was assessed. […] Conditioned place preference was used to test whether KP (30 mg/kg; i.p.) can trigger brain reward mechanisms (Jackson et al., 2019, Psychopharmacology, 236(12):3593-3599; Sora et al., 1998, Proc Natl Acad Sci USA 95:7699-7704), and there were no such effects (FIG. 4F). […] In pathologic pain models, KP acts centrally to mediate analgesic effects, and thus relies on KCC2 chloride extrusion.

O=C1Cc2c([nH]c3ccc(Br)cc23)-c2ccccc2N1 [kenpaullone, 9-bromo-7,12-dihydro-indolo [3,2-d] [1]benzazepin-6(5H)-one]
Luciferase Score (triplicates) (KCC2 promoter): 2
RT-QPCR Score (triplicates) (KCC2 mRNA [1]): 2
KCC2 mRNA expression (KCC2 mRNA [2]): dose-dependent increase
elapsed time on the rotarod [3]: does not affect motor stamina and coordination
